Laboratory results from patent US10538535B2, “Antitumoral compounds” (priority 2017, dated 2020).
Where two headings read alike, the source gives them in different places.

Columns and labels:
A549 cells = assay: cells; conditions: Homo sapiens, A549, 72 h
How it was run: (§1)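 Cells were seeded at 5000 per well, attached overnight in drug-free medium, then exposed for 72 hours to ten 2/5 serial dilutions (10 to 0.003 μg/mL, 1% final DMSO) in triplicate. Growth was measured by SRB staining against a time-zero plate, with NCI-algorithm four-parameter logistic fits.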

HT29 cells = assay: cells; conditions: Homo sapiens, HT-29, 72 h
How it was run: as §1

MDA-MB-231 cells = assay: cells; conditions: Homo sapiens, MDA-MB-231, 72 h
How it was run: as §1

PSN1 cells = assay: cells; conditions: Homo sapiens, PSN1, 72 h
How it was run: as §1

Procedure for A2780 tumors: (§2) Female athymic nu/nu mice (Harlan Laboratories Models, S. L. Barcelona, Spain or Envigo, Spain) were utilized for all experiments. Animal were housed in individually ventilated cages Sealsafe® Plus, Techniplast S.P.A.), up to ten per cage on a 12-hour light-dark cycle at 21-23° C. and 40-60% humidity. […] Animals were acclimated for at least 5 days prior to tumor implantation with a tumor cell suspension.
Culture cells were passaged every 3 to 5 days upon reaching confluence. Each animal was subcutaneously implanted (on the right flank using 26 G needle and a 1 cc syringe) at 4-6 weeks of age with 10×10^6 A2780 cells suspended in 0.05 mL of a solution consisting of 50% Matrigel® (Corning Incorporated Life Sciences) and 50% medium without serum or antibiotics.
(§3) Treatment tolerability was assessed by monitoring body weight evolution, clinical signs of systemic toxicity, as well as evidences of local damage in the injection site.
In xenograft studies with other cell lines: • Tumor volume was calculated using the equation (a·b^2)/2, where a: length (longest diameter) and b: width (shortest diameter) were measured in mm by using digital caliper (Fowler Sylvac, S235PAT).
(§4) Treatments producing >20% lethality and/or 20% net body weight loss were considered toxic.
Procedure for HGC27 tumors: as §2
HGC27 cells were maintained in vitro at 37° C. with 5% CO2 in Iscove's Modified Dulbecco's Medium (Sigma Aldrich, Co). Culture cells were passage every 3 to 5 days on reaching confluence. Each animal was subcutaneously implanted (on the right flank using 26 G needle and a 1 cc syringe) at 4-6 weeks of age with 5×10^6 HGC-27 cells suspended in 0.05 mL of a solution consisting of 50% Matrigel® (Corning Incorporated Life Sciences), 50% medium without serum or antibiotics.
as §3, §4

COc1c(C)cc2c(c1O)[C@@H]1[C@@H]3[C@@H]4SC[C@]5(N[C@@H](C)Cc6c5[nH]c5ccccc65)C(=O)OC[C@@H](c5c6c(c(C)c(OC(C)=O)c54)OCO6)N3[C@@H](O)[C@H](C2)N1C [D]
GI50 (A549 cells): 12.5 nM
CC50 (A549 cells; read-out: LC50): > 130 nM
IC (TGI) (A549 cells; read-out: TGI): 28.6 nM
GI50 (HT29 cells): 10.3 nM
CC50 (HT29 cells; read-out: LC50): > 130 nM
IC (TGI) (HT29 cells; read-out: TGI): 23.4 nM
GI50 (MDA-MB-231 cells): 9.88 nM
CC50 (MDA-MB-231 cells; read-out: LC50): 53.3 nM
IC (TGI) (MDA-MB-231 cells; read-out: TGI): 19.5 nM
GI50 (PSN1 cells): 20.8 nM
CC50 (PSN1 cells; read-out: LC50): 24.7 nM
IC (TGI) (PSN1 cells; read-out: TGI): 22.1 nM
Median Tumor Volume (A2780 tumors; Table 26, Day 0, iv Days 0, 7, 14): 190.1 mm^3
Median Tumor Volume (A2780 tumors; Table 26, Day 3, iv Days 0, 7, 14): 319.6 mm^3
Median Tumor Volume (A2780 tumors; Table 26, Day 5, iv Days 0, 7, 14): 514.4 mm^3
Median Tumor Volume (A2780 tumors; Table 26, Day 7, iv Days 0, 7, 14): 897.4 mm^3
Median Tumor Volume (A2780 tumors; Table 26, Day 10, iv Days 0, 7, 14): 1239.8 mm^3
Median Tumor Volume (A2780 tumors; Table 26, Day 12, iv Days 0, 7, 14): 1656.2 mm^3
Median Tumor Volume (A2780 tumors; Table 26, Day 14, iv Days 0, 7, 14): 1951.7 mm^3
Median Tumor Volume (A2780 tumors; Table 26, Day 17, iv Days 0, 7, 14): 2121.7 mm^3
Median Tumor Volume (A2780 tumors; Table 26, Day 19, iv Days 0, 7, 14): 2068.6 mm^3
Median Tumor Volume (A2780 tumors; iv, 0.5 mg/kg, 0 h): 168.8 mm^3
Median Tumor Volume (A2780 tumors; iv, 0.5 mg/kg, 48 h): 225.7 mm^3
Median Tumor Volume (A2780 tumors; iv, 0.5 mg/kg, 120 h): 256.6 mm^3
Median Tumor Volume (A2780 tumors; iv, 0.5 mg/kg, 168 h): 473.8 mm^3
Median Tumor Volume (A2780 tumors; iv, 0.5 mg/kg, 336 h): 1129.3 mm^3
Median Tumor Volume (A2780 tumors; iv, 0.5 mg/kg, 384 h): 1198.6 mm^3
Median Tumor Volume (A2780 tumors; iv, 0.5 mg/kg, 456 h): 1649.6 mm^3
Median Tumor Volume (A2780 tumors; iv, 0.5 mg/kg, 504 h): 2025.0 mm^3
Median Tumor Volume (HGC27 tumors; Table 28, Day 0, iv Days 0, 7, 14): 157.4 mm^3
Median Tumor Volume (HGC27 tumors; Table 28, Day 2, iv Days 0, 7, 14): 327.6 mm^3
Median Tumor Volume (HGC27 tumors; Table 28, Day 5, iv Days 0, 7, 14): 439.6 mm^3
Median Tumor Volume (HGC27 tumors; Table 28, Day 7, iv Days 0, 7, 14): 418.7 mm^3
Median Tumor Volume (HGC27 tumors; Table 28, Day 9, iv Days 0, 7, 14): 567.9 mm^3
Median Tumor Volume (HGC27 tumors; Table 28, Day 12, iv Days 0, 7, 14): 537.0 mm^3
Median Tumor Volume (HGC27 tumors; Table 28, Day 14, iv Days 0, 7, 14): 654.6 mm^3
Median Tumor Volume (HGC27 tumors; Table 28, Day 16, iv Days 0, 7, 14): 672.4 mm^3
Median Tumor Volume (HGC27 tumors; Table 28, Day 19, iv Days 0, 7, 14): 843.0 mm^3
Median Tumor Volume (HGC27 tumors; Table 28, Day 21, iv Days 0, 7, 14): 842.7 mm^3
Median Tumor Volume (HGC27 tumors; Table 28, Day 23, iv Days 0, 7, 14): 963.7 mm^3
Median Tumor Volume (HGC27 tumors; Table 28, Day 26, iv Days 0, 7, 14): 1203.3 mm^3
Median Tumor Volume (HGC27 tumors; Table 28, Day 28, iv Days 0, 7, 14): 1589.7 mm^3
Median Tumor Volume (HGC27 tumors; Table 28, Day 30, iv Days 0, 7, 14): 1777.6 mm^3
Median Tumor Volume (HGC27 tumors; Table 28, Day 33, iv Days 0, 7, 14): 2146.2 mm^3
Median Tumor Volume (HGC27 tumors; iv, 0.5 mg/kg, 0 h): 194.0 mm^3
Median Tumor Volume (HGC27 tumors; iv, 0.5 mg/kg, 48 h): 324.2 mm^3
Median Tumor Volume (HGC27 tumors; iv, 0.5 mg/kg, 120 h): 561.6 mm^3
Median Tumor Volume (HGC27 tumors; iv, 0.5 mg/kg, 168 h): 504.2 mm^3
